For this assay, the target named is recombinant full length HPK-1 enzyme (Homo sapiens (Human), UniProt Q92918). In words: HPK-1 biochemical enzyme assay (ADP-Glo kinase inhibition). As to conditions: recombinant full length HPK-1 6.8 nM, 10 μM ATP, 12.5 μM MBP, 30 mins at 25° C. The essentials: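 ADP-Glo readout of ADP formed after a 30 min, 25° C. reaction of 6.8 nM full-length HPK-1 with swine myelin basic protein (12.5 μM) and ATP (10 μM) in Tris pH 7.4 buffer with MgCl2, DTT and BSA. Ten compound concentrations tested; percent inhibition set against vehicle (0%) and no-enzyme (100%) controls gave IC50.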
Chain of recombinant full length HPK-1 enzyme (Q92918 whole entry, species assumed): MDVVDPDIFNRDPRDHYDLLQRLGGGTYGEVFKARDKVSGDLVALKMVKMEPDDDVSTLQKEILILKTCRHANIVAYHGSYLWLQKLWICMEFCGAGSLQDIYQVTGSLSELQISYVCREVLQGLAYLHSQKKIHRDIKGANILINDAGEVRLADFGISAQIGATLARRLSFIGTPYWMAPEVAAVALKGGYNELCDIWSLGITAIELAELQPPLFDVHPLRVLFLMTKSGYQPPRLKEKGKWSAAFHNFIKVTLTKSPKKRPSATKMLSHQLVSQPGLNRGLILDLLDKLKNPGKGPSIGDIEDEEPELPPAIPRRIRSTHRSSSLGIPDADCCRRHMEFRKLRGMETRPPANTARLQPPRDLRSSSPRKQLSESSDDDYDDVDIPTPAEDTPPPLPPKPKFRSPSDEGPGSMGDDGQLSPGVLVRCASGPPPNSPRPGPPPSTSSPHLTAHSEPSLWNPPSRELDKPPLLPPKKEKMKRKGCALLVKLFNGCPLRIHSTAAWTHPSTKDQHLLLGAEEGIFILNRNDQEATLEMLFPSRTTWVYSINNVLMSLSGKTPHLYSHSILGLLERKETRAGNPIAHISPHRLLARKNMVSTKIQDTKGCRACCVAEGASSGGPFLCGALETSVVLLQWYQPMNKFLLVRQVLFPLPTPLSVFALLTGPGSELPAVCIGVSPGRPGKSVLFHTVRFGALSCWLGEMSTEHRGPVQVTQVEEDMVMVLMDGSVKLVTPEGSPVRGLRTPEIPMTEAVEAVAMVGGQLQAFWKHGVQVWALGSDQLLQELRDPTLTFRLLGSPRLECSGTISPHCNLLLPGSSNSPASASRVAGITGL
(ADP-Glo first removes unused ATP, then detects ADP through luciferase.)

The IC50 is the concentration that gives 50% inhibition.

Turning to `Cc1c(Nc2cc[nH]c(=O)c2C(=O)Nc2ccc(C3CCCCC3)cc2)cnc2c1NCCO2` [Example 330, N-(4-cyclohexylphenyl)-4-((8-methyl-2,3-dihydro-1H-pyrido[2,3-b][1,4]oxazin-7-yl)amino)-2-oxo-1,2-dihydropyridine-3-carboxamide], the IC50 fell in the range of 100 to 1000 nM.
Consider `Cc1c(Nc2cc[nH]c(=O)c2C(=O)Nc2ccc(N3CCN(C(C)(C)C)CC3)cc2)cnc2c1NCCO2` [Example 383, N-(4-(4-(tert-butyl)piperazin-1-yl)phenyl)-4-((8-methyl-2,3-dihydro-1H-pyrido[2,3-b][1,4]oxazin-7-yl)amino)-2-oxo-1,2-dihydropyridine-3-carboxamide], for which the 50% inhibitory concentration (IC50) was no more than 10 nM.
With `Cc1c(Nc2cc[nH]c(=O)c2C(=O)Nc2ccc(N3CCN4CCOC[C@H]4C3)cc2)cnc2c1NCCO2` [Example 323, (R)-N-(4-(hexahydropyrazino[2,1-c][1,4]oxazin-8(1H)-yl)phenyl)-4-((8-methyl-2,3-dihydro-1H-pyrido[2,3-b][1,4]oxazin-7-yl)amino)-2-oxo-1,2-dihydropyridine-3-carboxamide] the figure was 10 to 100 nM; with `Cc1c(Nc2cc[nH]c(=O)c2C(=O)Nc2ccc(CN3CCN(C)CC3)cc2)cnc2c1NCCO2` [Example 206, 4-((8-methyl-2,3-dihydro-1H-pyrido[2,3-b][1,4]oxazin-7-yl)amino)-N-(4-((4-methylpiperazin-1-yl)methyl)phenyl)-2-oxo-1,2-dihydropyridine-3-carboxamide], 10 to 100 nM.
The figure for `CCN1CCN(c2ccc(NC(=O)c3c(Nc4cnc5c(c4C)NCCO5)cc[nH]c3=O)cc2)CC1` [Example 136, N-(4-(4-ethylpiperazin-1-yl)phenyl)-4-((8-methyl-2,3-dihydro-1H-pyrido[2,3-b][1,4]oxazin-7-yl)amino)-2-oxo-1,2-dihydropyridine-3-carboxamide] is no more than 10 nM; for `COCC(C)N1CCN(c2ccc(NC(=O)c3c(Nc4cnc5c(c4C)NCCO5)cc[nH]c3=O)cc2)CC1` (stereo not shown) [Example 351, N-(4-(4-(1-methoxypropan-2-yl)piperazin-1-yl)phenyl)-4-((8-methyl-2,3-dihydro-1H-pyrido[2,3-b][1,4]oxazin-7-yl)amino)-2-oxo-1,2-dihydropyridine-3-carboxamide] it is 10 to 100 nM.
In the case of `Cc1c(Nc2cc[nH]c(=O)c2C(=O)Nc2ccc(N3CCN(c4cccnc4)CC3)cc2)cnc2c1NCCO2` [Example 286, 4-((8-methyl-2,3-dihydro-1H-pyrido[2,3-b][1,4]oxazin-7-yl)amino)-2-oxo-N-(4-(4-(pyridin-3-yl)piperazin-1-yl)phenyl)-1,2-dihydropyridine-3-carboxamide], the IC50 was no more than 10 nM.
Take `COCC1CN(C)CCN1c1ccc(NC(=O)c2c(Nc3cnc4c(c3C)NCC(C)O4)cc[nH]c2=O)cc1` (stereo not shown) [Example 197, 4-((3,8-Dimethyl-2,3-dihydro-1H-pyrido[2,3-b][1,4]oxazin-7-yl)amino)-N-(4-(2-(methoxymethyl)-4-methylpiperazin-1-yl)phenyl)-2-oxo-1,2-dihydropyridine-3-carboxamide]: the IC50 was in the range of 10 to 100 nM.
With `Cc1c(Nc2cc[nH]c(=O)c2C(=O)Nc2ccc(N3CCN(C(=O)C4CCCC4)CC3)cc2)cnc2c1NCCO2` [Example 283, N-(4-(4-(cyclopentanecarbonyl)piperazin-1-yl)phenyl)-4-((8-methyl-2,3-dihydro-1H-pyrido[2,3-b][1,4]oxazin-7-yl)amino)-2-oxo-1,2-dihydropyridine-3-carboxamide] the figure was no more than 10 nM; with `Cc1c(Nc2cc[nH]c(=O)c2C(=O)Nc2ccc(N3CCN(C4CCCC4)CC3)c(F)c2)cnc2c1NCCO2` [Example 259, N-(4-(4-cyclopentylpiperazin-1-yl)-3-fluorophenyl)-4-((8-methyl-2,3-dihydro-1H-pyrido[2,3-b][1,4]oxazin-7-yl)amino)-2-oxo-1,2-dihydropyridine-3-carboxamide], no more than 10 nM.
With `Cc1c(Nc2cc[nH]c(=O)c2C(=O)Nc2ccc(N3CCN(CCCS(C)(=O)=O)CC3)cc2)cnc2c1NCCO2` [Example 225, 4-((8-methyl-2,3-dihydro-1H-pyrido[2,3-b][1,4]oxazin-7-yl)amino)-N-(4-(4-(3-(methylsulfonyl)propyl)piperazin-1-yl)phenyl)-2-oxo-1,2-dihydropyridine-3-carboxamide] the figure was no more than 10 nM; with `Cc1c(Nc2cc[nH]c(=O)c2C(=O)Nc2ccc(N3CCN(C(=O)N4CC5(CCC5)C4)CC3)cc2)cnc2c1NCCO2` [Example 320, N-(4-(4-(2-azaspiro[3.3]heptane-2-carbonyl)piperazin-1-yl)phenyl)-4-((8-methyl-2,3-dihydro-1H-pyrido[2,3-b][1,4]oxazin-7-yl)amino)-2-oxo-1,2-dihydropyridine-3-carboxamide], no more than 10 nM.
For `Cc1c(Nc2cc[nH]c(=O)c2C(=O)Nc2cnn(CC(F)(F)F)c2)cnc2c1NCCO2` [Example 409, 4-((8-methyl-2,3-dihydro-1H-pyrido[2,3-b][1,4]oxazin-7-yl)amino)-2-oxo-N-(1-(2,2,2-trifluoroethyl)-1H-pyrazol-4-yl)-1,2-dihydropyridine-3-carboxamide], the IC50 is 10 to 100 nM.
The figure for `Cc1c(Nc2cc[nH]c(=O)c2C(=O)Nc2ccc(N3CCN(CC4CCC(=O)N4)CC3)cc2)cnc2c1NCCO2` (stereo not shown) [Example 176, 4-((8-methyl-2,3-dihydro-1H-pyrido[2,3-b][1,4]oxazin-7-yl)amino)-2-oxo-N-(4-(4-((5-oxopyrrolidin-2-yl)methyl)piperazin-1-yl)phenyl)-1,2-dihydropyridine-3-carboxamide] is no more than 10 nM; for `Cc1c(Nc2cc[nH]c(=O)c2C(=O)Nc2ccc(N3CCN(C)CC3)cc2)cnc2c1NCC(C)O2` (stereo not shown) [Example 164, 4-((3,8-dimethyl-2,3-dihydro-1H-pyrido[2,3-b][1,4]oxazin-7-yl)amino)-N-(4-(4-methylpiperazin-1-yl)phenyl)-2-oxo-1,2-dihydropyridine-3-carboxamide] it is 10 to 100 nM; for `Cc1c(Nc2cc[nH]c(=O)c2C(=O)Nc2ccc(N3CCN(C)CC3)c(CO)c2)cnc2c1NCC(C)O2` (stereo not shown) [Example 204, 4-((3,8-dimethyl-2,3-dihydro-1H-pyrido[2,3-b][1,4]oxazin-7-yl)amino)-N-(3-(hydroxymethyl)-4-(4-methylpiperazin-1-yl)phenyl)-2-oxo-1,2-dihydropyridine-3-carboxamide] it is 10 to 100 nM.
With `CCOCCN1CCN(c2ccc(NC(=O)c3c(Nc4cnc5c(c4C)NCCO5)cc[nH]c3=O)cc2)CC1` [Example 368, N-(4-(4-(2-ethoxyethyl)piperazin-1-yl)phenyl)-4-((8-methyl-2,3-dihydro-1H-pyrido[2,3-b][1,4]oxazin-7-yl)amino)-2-oxo-1,2-dihydropyridine-3-carboxamide], the IC50 was in the range of 10 to 100 nM.
Consider `Cc1c(Nc2cc[nH]c(=O)c2C(=O)Nc2ccc(N3CCN(C(C)c4ccn[nH]4)CC3)cc2)cnc2c1NCCO2` (stereo not shown) [Example 378, N-(4-(4-(1-(1H-pyrazol-5-yl)ethyl)piperazin-1-yl)phenyl)-4-((8-methyl-2,3-dihydro-1H-pyrido[2,3-b][1,4]oxazin-7-yl)amino)-2-oxo-1,2-dihydropyridine-3-carboxamide], for which the IC50 is no more than 10 nM.
`Cc1c(Nc2cc[nH]c(=O)c2C(=O)Nc2ccc(N3CCN(C)CC3)cc2)cnc2c1NCCO2` [Example 45, 4-((8-Methyl-2,3-dihydro-1H-pyrido[2,3-b][1,4]oxazin-7-yl)amino)-N-(4-(4-methylpiperazin-1-yl)phenyl)-2-oxo-1,2-dihydropyridine-3-carboxamide]: the IC50 was no more than 10 nM.
As for `CCN1CCN(c2ccc(NC(=O)c3c(Nc4cnc5c(c4C)NCC(C)O5)cc[nH]c3=O)cc2F)CC1` (stereo not shown) [Example 361, 4-((3,8-dimethyl-2,3-dihydro-1H-pyrido[2,3-b][1,4]oxazin-7-yl)amino)-N-(4-(4-ethylpiperazin-1-yl)-3-fluorophenyl)-2-oxo-1,2-dihydropyridine-3-carboxamide], the IC50 was 10 to 100 nM.
For `Cc1c(Nc2cc[nH]c(=O)c2C(=O)Nc2ccc(N3CCN(c4ccnc(C(=O)N(C)C)c4)CC3)cc2)cnc2c1NCCO2` [Example 365, N,N-dimethyl-4-(4-(4-(4-((8-methyl-2,3-dihydro-1H-pyrido[2,3-b][1,4]oxazin-7-yl)amino)-2-oxo-1,2-dihydropyridine-3-carboxamido)phenyl)piperazin-1-yl)picolinamide], the IC50 is 10 to 100 nM.
With `Cc1c(Nc2cc[nH]c(=O)c2C(=O)Nc2cnc(-n3nccn3)c(Cl)c2)cnc2c1NCCO2` [Example 229, N-(5-chloro-6-(2H-1,2,3-triazol-2-yl)pyridin-3-yl)-4-((8-methyl-2,3-dihydro-1H-pyrido[2,3-b][1,4]oxazin-7-yl)amino)-2-oxo-1,2-dihydropyridine-3-carboxamide], the IC50 fell in the range of 100 to 1000 nM.
`Cc1c(Nc2cc[nH]c(=O)c2C(=O)Nc2ccc(C3CC(=O)N(C)C3)cc2)cnc2c1NCCO2` (stereo not shown) [Example 184, 4-((8-methyl-2,3-dihydro-1H-pyrido[2,3-b][1,4]oxazin-7-yl)amino)-N-(4-(1-methyl-5-oxopyrrolidin-3-yl)phenyl)-2-oxo-1,2-dihydropyridine-3-carboxamide]: the IC50 is no more than 10 nM.
As for `Cc1c(Nc2cc[nH]c(=O)c2C(=O)Nc2ccc(C[C@H]3COC(=O)N3)cc2)cnc2c1NCCO2` [Example 228, (S)-4-((8-methyl-2,3-dihydro-1H-pyrido[2,3-b][1,4]oxazin-7-yl)amino)-2-oxo-N-(4-((2-oxooxazolidin-4-yl)methyl)phenyl)-1,2-dihydropyridine-3-carboxamide], the half-inhibitory concentration (IC50) is 10 to 100 nM.
Regarding `CNc1cc(NC(=O)c2c(Nc3cnc4c(c3C)NCCO4)cc[nH]c2=O)ccc1N1CCN(C)CC1` [Example 295, 4-((8-methyl-2,3-dihydro-1H-pyrido[2,3-b][1,4]oxazin-7-yl)amino)-N-(3-(methylamino)-4-(4-methylpiperazin-1-yl)phenyl)-2-oxo-1,2-dihydropyridine-3-carboxamide], the IC50 lay within 10 to 100 nM.

The values above are taken from patent US20250282794A1 (CURADEV PHARMA LTD, priority 2022, published 2025).
